Assay results: publication PMC8705783, “The Effect of Conjugation with Octaarginine, a Cell-Penetrating Peptide on Antifungal Activity of Imidazoacridinone Derivative” (International Journal of Molecular Sciences, 2021)
In brackets after ≈: the same amount, converted by molar mass. Counter-ions that a name gives are not always drawn.

Tests used:
Candida albicans = system: Candida albicans; set-up: method as in PMID 23563951; key to Antifungal Activity (level): (−) Means no antifungal activity; (±) low activity; (+) moderate activity; (++) high activity at the concentration mentioned; settings: cited from earlier work
[1] = system: Saccharomyces cerevisiae ATCC 9763; assay: microbe, parasite or virus in culture; settings: ATCC9763, 24 h, pH 7
[2] = system: Candida parapsilosis ATCC 22019; assay: microbe, parasite or virus in culture; settings: Lodderomyces parapsilosis, ATCC22019, 24 h, pH 7
[3] = system: Candida glabrata ATCC 90030; assay: microbe, parasite or virus in culture; settings: Nakaseomyces glabratus, ATCC90030, 24 h, pH 7
reference strains = assay: Antifungal activity, summary over reference strains; type: cell-based; set-up: key to Antifungal Activity (level): (−) Means no antifungal activity; (±) low activity; (+) moderate activity; (++) high activity at the concentration mentioned; settings: for Antifungal Activity (level): Table 3; for antifungal activity: as reported in Table 1
[4] = system: Candida albicans ATCC 10231; assay: microbe, parasite or virus in culture
Candida krusei ATCC 6258 = assay: microbe, parasite or virus in culture; settings: Pichia kudriavzevii, ATCC6258, 24 h, pH 7
human topoisomerase II = settings: cited from earlier work
yeast topoisomerase II = yeast topoisomerase II (Saccharomyces cerevisiae, UniProt P06786); assay: Yeast topoisomerase II relaxation assay; type: biochemical; settings: supercoiled pBR322, tested at 1-200 μM
yeast topoisomerase II, sequence (P06786 whole entry): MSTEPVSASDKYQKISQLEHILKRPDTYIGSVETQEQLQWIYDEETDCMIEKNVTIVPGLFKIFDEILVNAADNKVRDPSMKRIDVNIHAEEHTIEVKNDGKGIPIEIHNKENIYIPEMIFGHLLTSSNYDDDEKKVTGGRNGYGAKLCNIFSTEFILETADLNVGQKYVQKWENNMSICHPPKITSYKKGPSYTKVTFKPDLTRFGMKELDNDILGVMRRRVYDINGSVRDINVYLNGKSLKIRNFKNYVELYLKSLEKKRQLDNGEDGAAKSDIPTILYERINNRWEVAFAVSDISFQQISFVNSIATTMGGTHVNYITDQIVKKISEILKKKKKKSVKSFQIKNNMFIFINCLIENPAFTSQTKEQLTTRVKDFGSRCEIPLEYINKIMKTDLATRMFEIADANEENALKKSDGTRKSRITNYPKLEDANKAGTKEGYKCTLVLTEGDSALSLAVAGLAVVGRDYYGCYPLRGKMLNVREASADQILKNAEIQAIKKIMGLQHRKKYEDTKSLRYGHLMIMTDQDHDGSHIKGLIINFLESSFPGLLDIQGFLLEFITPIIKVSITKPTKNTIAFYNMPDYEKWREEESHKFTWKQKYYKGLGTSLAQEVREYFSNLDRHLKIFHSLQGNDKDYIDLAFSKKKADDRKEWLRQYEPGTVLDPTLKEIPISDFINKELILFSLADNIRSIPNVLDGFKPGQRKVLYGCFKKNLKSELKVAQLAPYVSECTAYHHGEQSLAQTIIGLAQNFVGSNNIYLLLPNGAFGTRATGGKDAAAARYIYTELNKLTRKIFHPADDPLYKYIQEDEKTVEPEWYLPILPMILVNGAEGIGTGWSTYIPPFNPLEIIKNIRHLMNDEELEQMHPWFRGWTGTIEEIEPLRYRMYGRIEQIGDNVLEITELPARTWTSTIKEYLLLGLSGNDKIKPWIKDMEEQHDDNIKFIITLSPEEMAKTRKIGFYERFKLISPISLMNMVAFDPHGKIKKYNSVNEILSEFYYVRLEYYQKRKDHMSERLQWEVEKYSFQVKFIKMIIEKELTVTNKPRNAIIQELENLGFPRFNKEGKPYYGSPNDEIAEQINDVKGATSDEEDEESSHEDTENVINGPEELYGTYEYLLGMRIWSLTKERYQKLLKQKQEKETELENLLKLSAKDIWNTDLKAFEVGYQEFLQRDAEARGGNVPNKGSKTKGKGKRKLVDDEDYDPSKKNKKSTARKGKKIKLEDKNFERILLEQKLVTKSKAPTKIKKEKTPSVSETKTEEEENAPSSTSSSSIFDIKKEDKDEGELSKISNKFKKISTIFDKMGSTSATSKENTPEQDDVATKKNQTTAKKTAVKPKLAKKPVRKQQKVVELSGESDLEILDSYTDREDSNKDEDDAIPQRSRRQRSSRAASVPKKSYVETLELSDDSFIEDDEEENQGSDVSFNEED
Experimental: Due to the known activity of acridine and acridone derivatives as human topoisomerase inhibitors widely analysed for cancer chemotherapy, we decided to analyse the influence of Compound 1 as well as its R8 conjugate on the fungal equivalent of that enzyme. The relaxation of supercoiled plasmid DNA by yeast topoisomerase II (yTOPO II) was studied in the presence of different concentrations of both compounds.
The inhibition of yeast topoisomerase II was analysed according to the relaxation assay kit from Inspiralis (Inspiralis Limited, Norwich, UK). Briefly, 250 ng of supercoiled pBR322 DNA (Thermo Fisher Scientific, Waltham, MA, USA), 1 mM ATP (Inspiralis Limited, UK), and 1–200 μM of the analysed compound were mixed with reaction buffer (1 mM Tris-HCl (pH 7.9), 10 mM KCl, 0.5 mM MgCl2, 0.2 % (by volume) glycerol). The reaction was initiated by the addition of an enzyme, allowed to proceed at 30 °C for 30 min and terminated by addition of 40% (m/V) sucrose, 100 mM Tris-HCl pH 8, 10 mM EDTA, and 0.5 mg mL^−1 Bromophenol Blue. Two-step extraction with chloroform:isoamyl alcohol (24:1, by volume) and butanol water was performed and mixtures were analysed on 1% agarose gel in 1 × TAE buffer, 3h, 4.5 V cm^−1. Gel was stained in GelRed 3 × staining solution (Biotium, Fremont, CA, USA) for 30 min and photographed with Gel Doc XR+Gel Documentation System (Bio-Rad: Hercules, CA, USA).

Candida albicans B4 = assay: microbe, parasite or virus in culture
Candida albicans Gu5 = assay: microbe, parasite or virus in culture
C. albicans ATCC 10231 = type: cell-based, Candida albicans; settings: 1/4 × MIC to 4 × MIC, RPMI medium
Experimental: Killing kinetics analysis was performed as described previously. […] After an appropriate time of incubation, 10 μL was withdrawn and spread on YPG agar plates. The number of colony-forming units (CFUs) was determined after overnight incubation of the plates at 37 °C. The killing kinetics analysis was performed with the GraphPad Prism 8 software (GraphPad Software Inc., San Diego, CA, USA).

Candida albicans F5 = assay: microbe, parasite or virus in culture
Candida albicans F2 = assay: microbe, parasite or virus in culture
Candida albicans Gu4 = assay: microbe, parasite or virus in culture
Candida albicans B3 = assay: microbe, parasite or virus in culture

MIC90 [1] [µg/mL] | MIC90 [2] [µg/mL] | MIC90 [3] [µg/mL] | MIC90 ([4]; ATCC10231, 24 h, pH 7) [µg/mL] | MIC90 (Candida krusei ATCC 6258) [µg/mL] | SMILES | Antifungal Activity (level) (reference strains) | antifungal activity (reference strains) | melting point [°C] | other results
 |  |  |  |  | CCN(CC)CCNc1ccc2ncn3c4ccc(OC)cc4c(=O)c1c23 [Compound C-1330] |  |  |  | Antifungal Activity (level) (Candida albicans; Table 3, activity data published previously ref 8): +; antifungal activity (Candida albicans): showed phototoxic antifungal activity
32 (≈ 95.4 µM) | > 64 | > 64 | > 64 | > 64 | Cc1ccc2c(c1)c(=O)c1c(NCCCN(C)C)ccc3nnn2c31 [Compound C-1296, 5-[-(3′-Dimethylamino)propylamino]-8-methyl-6H-[1,2,3]-triazolo[4,5,l-de]acridin-6-one] | ± | no antifungal activity was observed |  | 
 |  |  |  |  | OC(Cn1cncn1)(Cn1cncn1)c1ccc(F)cc1F [Fluconazole] |  |  |  | MIC90 (Candida albicans B4): 16 µg/mL (≈ 52.2 µM); MIC90 (Candida albicans Gu5): > 64 µg/mL; killing kinetics, kind of effect (C. albicans ATCC 10231): fungistatic; MIC90 (Candida albicans F5): > 64 µg/mL; MIC90 ([4]; ATCC10231): 8 µg/mL (≈ 26.1 µM); MIC90 (Candida albicans F2): 8 µg/mL (≈ 26.1 µM); MIC90 (Candida albicans Gu4): 4 µg/mL (≈ 13.1 µM); MIC90 (Candida albicans B3): 1 µg/mL (≈ 3.27 µM)
> 64 | > 64 | > 64 | > 64 | > 64 | CCNCCNc1ccc2nnn3c4ccc(O)cc4c(=O)c1c23 [Compound C-1410, 5-[2′-(Ethyl)-ethylenediamine]-8-hydroxy-6H-[1,2,3]-triazolo[4,5,l-de]acridin-6-one] | − | no antifungal activity was observed |  | 
 |  |  |  |  | Cc1ccc2c(c1)c(=O)c1c(NCCCN(C)C)ccc3nnn2c31 (as salt: hydrochloride) [Compound C-1296, 5-[-(3′-Dimethylamino)propylamino]-8-methyl-6H-[1,2,3]-triazolo[4,5,l-de]acridin-6-one] |  |  | 120 to 122 | 
 |  |  |  |  | NCCNc1ccc2ncn3c4ccc(O)cc4c(=O)c1c23 (as salt: hydrochloride) [Compound 1, 5-((2-Aminoethyl)amino)-8-hydroxy-6H-imidazo[4,5,1-de]acridin-6-one] |  |  | 332 to 334 | 
 |  |  |  |  | CCNCCNc1ccc2nnn3c4ccc(O)cc4c(=O)c1c23 (as salt: hydrochloride) [Compound C-1410, 5-[2′-(Ethyl)-ethylenediamine]-8-hydroxy-6H-[1,2,3]-triazolo[4,5,l-de]acridin-6-one] |  |  | 300 | 
 |  |  |  |  | CN(C)CCCNc1ccc2nnn3c4ccc(O)cc4c(=O)c1c23 (as salt: hydrochloride) [Compound C-1305, 5-[-(3′-Dimethylamino)propylamino]-8-hydroxy-6H-[1,2,3]-triazolo[4,5,l-de]acridin-6-one] |  |  | 228 to 230 | 

SMILES | MIC90 [1] [µg/mL] | MIC90 [2] [µg/mL] | MIC90 [3] [µg/mL] | MIC90 ([4]; ATCC10231, 24 h, pH 7) [µg/mL] | MIC90 (Candida krusei ATCC 6258) [µg/mL] | Antifungal Activity (level) (reference strains) | antifungal activity (reference strains) | melting point [°C] | other results
CN(C)CCCNc1ccc2nnn3c4ccc(O)cc4c(=O)c1c23 [Compound C-1305, 5-[-(3′-Dimethylamino)propylamino]-8-hydroxy-6H-[1,2,3]-triazolo[4,5,l-de]acridin-6-one] | > 64 | > 64 | > 64 | > 64 | > 64 | − | no antifungal activity was observed |  | concentration that totally inhibited human topoisomerase II-mediated relaxation (human topoisomerase II): 10 µM; IC50 (human topoisomerase II; read-out: concentration that diminished the relaxation reaction by 50%): 2500 nM; concentration that totally inhibited yeast topoisomerase II-mediated relaxation (yeast topoisomerase II): 50 µM
